Reference: patent US11214803B2, “Modulators of YAP1 expression” (Ionis Pharmaceuticals, Inc., priority 2019, dated 2022)
Strand notation (5' to 3'): a small letter for the sugar, then the base; units joined by * are phosphorothioate-linked, units joined directly phosphodiester-linked; [ ] holds rarer units or linkages, { } end groups; capitals alone tell only the bases. k = constrained ethyl (cEt); [5mC] = 5-methylcytosine; d = 2'-deoxy (DNA)

System: Yap1 mRNA
Experiment: Dose-dependent inhibition of human Yap1 in A-431 cells (Example 6, 5,000 cells per well, RTS4814)
Assay type: cell-based
Conditions: for Yap1 mRNA, % UTC: 48 hours; for % UTC 148 nM / % UTC 444 nM / % UTC 1333 nM / % UTC 4000 nM: approximately 48 hours
Experimental: Modified oligonucleotides described in the studies above were tested at various doses in A-431 cells. Cultured A-431 cells at a density of 5,000 cells per well were treated using free uptake with modified oligonucleotides diluted to concentrations described in the tables below. After approximately 48 hours, Yap1 mRNA levels were measured as previously described using the Human Yap1 primer-probe set RTS4814. Yap1 mRNA levels were normalized to total RNA content, as measured by RIBOGREEN®. Results are presented in the tables below as percent control of the amount of Yap1 mRNA relative to untreated control cells (% UTC). IC50s were calculated using a linear regression on a log/linear plot of the data in excel.

[1] = Table 55, 148 nM, free uptake, A-431 cells 5,000 cells per well, RTS4814
[2] = Table 55, 444 nM, free uptake, A-431 cells 5,000 cells per well, RTS4814
[3] = Table 55, 1333 nM, free uptake, A-431 cells 5,000 cells per well, RTS4814
[4] = Table 55, 4000 nM, free uptake, A-431 cells 5,000 cells per well, RTS4814
[5] = Table 55, A-431 cells 5,000 cells per well, free uptake, RTS4814
[6] = Table 53, A-431 cells, Yap1 mRNA, linear regression on a log/linear plot
[7] = Table 53, A-431 cells, free uptake, 148 nM, RTS4814
[8] = Table 53, A-431 cells, free uptake, 444 nM, RTS4814
[9] = Table 53, A-431 cells, free uptake, 1333 nM, RTS4814
[10] = Table 53, A-431 cells, free uptake, 4000 nM, RTS4814
[11] = Table 54, A-431 cells, Yap1 mRNA, linear regression on a log/linear plot
[12] = Table 54, A-431 cells, free uptake, 148 nM, RTS4814
[13] = Table 54, A-431 cells, free uptake, 444 nM, RTS4814
[14] = Table 54, A-431 cells, free uptake, 1333 nM, RTS4814
[15] = Table 54, A-431 cells, free uptake, 4000 nM, RTS4814

| Substance | Yap1 mRNA, % UTC [1] [% UTC] | Yap1 mRNA, % UTC [2] [% UTC] | Yap1 mRNA, % UTC [3] [% UTC] | Yap1 mRNA, % UTC [4] [% UTC] | IC50 [5] [µM] | IC50 [6] [µM] | % UTC 148 nM [7] [% UTC] | % UTC 444 nM [8] [% UTC] | % UTC 1333 nM [9] [% UTC] | % UTC 4000 nM [10] [% UTC] | further results |
| --- | --- | --- | --- | --- | --- | --- | --- | --- | --- | --- | --- |
| 716419 (antisense kT*kT*kT*d[5mC]*d[5mC]*dG*dG*dT*dG*d[5mC]*dA*dT*dG*kT*kG*kT) [compound 716419] | 89 | 84 | 49 | 47 | 2.5 | – | – | – | – | – | – |
| 716438 (antisense kA*kT*kT*dT*dT*dT*dG*dG*d[5mC]*dT*dT*dG*dT*k[5mC]*kA*kG) [compound 716438] | 93 | 75 | 62 | 49 | 3.4 | – | – | – | – | – | – |
| 715490 (k[5mC]*k[5mC]*kA*dA*d[5mC]*dT*dA*dT*dT*dA*d[5mC]*dT*dT*k[5mC]*kA*kT; antisense) [compound 715490] | – | – | – | – | – | 4.1 | 98 | 89 | 76 | 43 | – |
| 715555 (kG*kT*kT*dA*dT*dT*d[5mC]*dA*dG*d[5mC]*dA*dG*d[5mC]*kT*kT*kA; antisense) [compound 715555] | – | – | – | – | – | 2.5 | 93 | 71 | 63 | 42 | – |
| 716381 (kT*kG*kT*d[5mC]*dT*dG*dA*dT*d[5mC]*dG*dA*dT*dG*kT*kG*kA; antisense) [compound 716381] | 106 | 90 | 80 | 44 | 4.2 | – | – | – | – | – | – |
| 715433 (kT*kG*kT*dT*d[5mC]*dT*dT*dA*dT*dG*dG*dT*dT*kT*kA*kT; antisense) [compound 715433] | – | – | – | – | – | 2.5 | 87 | 72 | 65 | 40 | – |
| 715486 (kT*kA*k[5mC]*dT*dT*d[5mC]*dA*dT*dA*dG*d[5mC]*dT*dT*kA*kT*kA; antisense) [compound 715486] | – | – | – | – | – | > 4 | 93 | 89 | 81 | 56 | – |
| 716577 (antisense kT*k[5mC]*kT*dG*dT*d[5mC]*dA*dG*dT*dT*dA*dT*d[5mC]*k[5mC]*kT*kA) [compound 716577] | – | – | – | – | – | – | – | – | – | – | IC50 [11]: > 4 µM; % UTC 148 nM [12]: 109 % UTC; % UTC 444 nM [13]: 93 % UTC; % UTC 1333 nM [14]: 79 % UTC; % UTC 4000 nM [15]: 60 % UTC |
| 716445 (antisense kG*kT*kA*dT*dG*dT*dG*dG*d[5mC]*dA*dA*dT*dA*kA*kT*kT) [compound 716445] | – | – | – | – | – | – | – | – | – | – | IC50 [11]: 2.6 µM; % UTC 148 nM [12]: 89 % UTC; % UTC 444 nM [13]: 82 % UTC; % UTC 1333 nM [14]: 56 % UTC; % UTC 4000 nM [15]: 44 % UTC |
| 716376 (k[5mC]*kG*kA*dA*dG*dA*dT*dG*d[5mC]*dT*dG*dA*dG*k[5mC]*kT*kG; antisense) [compound 716376] | – | – | – | – | – | – | – | – | – | – | IC50 [11]: > 4 µM; % UTC 148 nM [12]: 103 % UTC; % UTC 444 nM [13]: 94 % UTC; % UTC 1333 nM [14]: 79 % UTC; % UTC 4000 nM [15]: 50 % UTC |
| 715501 (kA*kA*kA*dA*dG*d[5mC]*d[5mC]*dT*dT*dA*dG*dA*dG*kT*k[5mC]*kA; antisense) [compound 715501] | – | – | – | – | – | > 4 | 82 | 82 | 68 | 56 | – |
| 716387 (antisense kT*kA*kT*dG*dG*dT*dT*dT*dA*dT*dA*dT*dA*kG*kT*kA) [compound 716387] | 94 | 94 | 80 | 67 | > 4 | – | – | – | – | – | – |
| 716501 (antisense kG*k[5mC]*kA*d[5mC]*dT*dG*dA*dA*dA*dG*dT*dA*d[5mC]*kT*kT*kA) [compound 716501] | 91 | 69 | 66 | 55 | > 4 | – | – | – | – | – | – |
| 715508 (k[5mC]*kT*kG*dT*dG*d[5mC]*dT*dG*dG*dG*dA*dT*dT*kG*kA*kT; antisense) [compound 715508] | – | – | – | – | – | 3.5 | 78 | 70 | 67 | 43 | – |
| 716469 (antisense kG*kT*kT*dT*dG*d[5mC]*dT*d[5mC]*d[5mC]*dT*dT*dT*d[5mC]*k[5mC]*kA*kA) [compound 716469] | – | – | – | – | – | – | – | – | – | – | IC50 [11]: > 4 µM; % UTC 148 nM [12]: 71 % UTC; % UTC 444 nM [13]: 78 % UTC; % UTC 1333 nM [14]: 89 % UTC; % UTC 4000 nM [15]: 39 % UTC |
| 715414 (kA*kA*k[5mC]*dA*dT*dG*d[5mC]*dT*dG*dT*dG*dG*dA*kG*kT*k[5mC]; antisense) [compound 715414] | – | – | – | – | – | – | – | – | – | – | IC50 [11]: > 4 µM; % UTC 148 nM [12]: 91 % UTC; % UTC 444 nM [13]: 91 % UTC; % UTC 1333 nM [14]: 102 % UTC; % UTC 4000 nM [15]: 67 % UTC |
| 715500 (kA*kA*kG*d[5mC]*d[5mC]*dT*dT*dA*dG*dA*dG*dT*d[5mC]*kA*kA*kT; antisense) [compound 715500] | – | – | – | – | – | 3.6 | 97 | 72 | 67 | 48 | – |
| 716537 (antisense kA*kT*kG*dT*dG*d[5mC]*dT*d[5mC]*d[5mC]*dA*dT*d[5mC]*dA*kA*k[5mC]*k[5mC]) [compound 716537] | 120 | 96 | 88 | 63 | > 4 | – | – | – | – | – | – |
| 715479 (kA*kA*kA*d[5mC]*d[5mC]*dA*dT*dT*dA*dT*dT*dA*d[5mC]*kT*k[5mC]*k[5mC]; antisense) [compound 715479] | – | – | – | – | – | > 4 | 98 | 80 | 77 | 64 | – |
